Entries after “also recorded” stand apart in the source; their conditions may differ.
How the values were obtained:
C57BL/6 mice = experiment: DSS (sodium dextran sulfate) model for intestinal inflammation: colon length, weight, DAI, appearance, colonic architecture; format: in vivo; conditions: after 1% DSS for 8 days; HED 10 mg
Experimental: (§1) A model for intestinal inflammation based on the administration of DSS (sodium dextran sulfate) to C57BL/6 mice was used. At the present time there is no consensus about which overall is the best model for experimental colitis. The DSS model has been widely used because it has clinical, morphological and analytical characteristics which up to a point are similar to those specific to patients with ulcerative colitis or Crohn's disease.
(§2) The in vivo inflammation test was carried out using duplicates separated by a number of months. In each test each group of animals (n=8) was fed a standard diet supplemented with 2.3 mg/day/kg (animal weight) of each of the compounds, depending upon the group. This dose assumes the ingestion of 0.05 mg/day (50 μg/day) per mouse (having a mean weight of 22 grams). This dose extrapolated to a human being is equivalent to 10 mg in an adult weighing 70 kg; using the formula HED (human equivalent dose)=animal dose in mg/kg×(animal weight kg/human weight in kg)^0.33.
(§3) In each test the mice were fed for 3 weeks during which 1% DSS was included in their drink. The DSS was maintained for 8 days (and the same food as from the start). Then the DSS was withdrawn and the animals were allowed to recover for another 6 days (again with the same food).
Groups included in the investigation: control (standard food), control-DSS, DSS-resveratrol (RES), DSS-piceid (PIC), DSS-resveratrol-diglucoside (DIGLUC), DSS-piceid-butyrate (BUT), DSS-piceid-octanoate (OCT).
• Monitoring of weight, food and drink ingestion. The mice in all groups were individually monitored, with weight, quantity of food ingested and water drunk each day being monitored throughout the experimental test. • Blood and water in feces. The water content of feces, as an indication of diarrhea, was evaluated using the difference in weight following evaporation in a stove. Blood was measured using reactive strips based on the guaiacol-peroxidase reaction (HealthCare Diagnosis Inc.). The samples were diluted 1:50 in saline solution and applied to the reactive strips. After 60 sec the color was compared with the template provided by the manufacturer. The reaction was measured using a scale from 0 (negative result) to 4 (most intense color change). • Length of colon. After sacrifice the colon was obtained from each mouse, extended and measured. Samples of the colonic mucosa for various tests mentioned below were obtained by scraping. • Myeloperoxidase activity in colonic mucosa. This was evaluated by spectrophotometry at 460 nm using O-dianisidine reagent and hydrogen peroxide. The change in absorbance at 460 nm was monitored over 10 minutes in a V-630 spectrophotometer (Jasco, Tokyo, Japan). MPO activity was expressed as mU of activity/mg of fresh tissue, comparing the increase in absorbance with a standard straight line obtained using leukocyte myeloperoxidase (Sigma). • Prostaglandins in colonic mucosa. Levels of PGE2 were measured in colonic mucosa homogenates using an immunoenzyme method using a Cayman Chem. kit (USA). • “Antibody array”. The “antibody array” kit from RayBiotech (“RayBio Mouse Inflammation Antibody Array 1”) was used to determine cytokines in colonic tissue samples. The “RayBio Mouse inflammation antibody arrays” are a fast and accurate system for determining the expression profile of multiple cytokines (in this case 40) in a very sensitive way. The sensitivity is 100 times greater than that of the ELISA method. The measurement was made in duplicate following the manufacturer's instructions. Membranes were blocked with blocking buffer and then incubated with 300 μg of protein for 2 hours. Finally the membranes were incubated with a cocktail of antibodies conjugated with biotin and then radish peroxidase marked with streptavidin. The signal was detected by chemoluminescence. Images were captured using a CCD camera fitted to a Biorad Chemidoc XRS imaging station. Signal intensities (densitometry) were analyzed using ScanAlyze software. […]

bifidobacteria = experiment: Microbiota counts in feces: bifidobacteria; format: in vivo, mice; conditions: HED 10 mg
Experimental: as §1, §2, §3
(§4) • Monitoring of weight, food and drink ingestion. The mice in all groups were individually monitored, with weight, quantity of food ingested and water drunk each day being monitored throughout the experimental test. • Blood and water in feces. The water content of feces, as an indication of diarrhea, was evaluated using the difference in weight following evaporation in a stove. Blood was measured using reactive strips based on the guaiacol-peroxidase reaction (HealthCare Diagnosis Inc.). […] The reaction was measured using a scale from 0 (negative result) to 4 (most intense color change). • Length of colon. After sacrifice the colon was obtained from each mouse, extended and measured. […] This was evaluated by spectrophotometry at 460 nm using O-dianisidine reagent and hydrogen peroxide. The change in absorbance at 460 nm was monitored over 10 minutes in a V-630 spectrophotometer (Jasco, Tokyo, Japan). MPO activity was expressed as mU of activity/mg of fresh tissue, comparing the increase in absorbance with a standard straight line obtained using leukocyte myeloperoxidase (Sigma). • Prostaglandins in colonic mucosa. Levels of PGE2 were measured in colonic mucosa homogenates using an immunoenzyme method using a Cayman Chem. kit (USA). • “Antibody array”. […] The signal was detected by chemoluminescence. […] Signal intensities (densitometry) were analyzed using ScanAlyze software. […] The changes in cytokine levels were expressed as mean±SD in arbitrary density units. […]

fibrinogen = experiment: Systemic inflammation marker fibrinogen (DSS model); format: in vivo, mice; conditions: vs DSS group; HED 10 mg
Experimental: as §1, §2, §3, §4

haptoglobin = experiment: Systemic inflammation marker haptoglobin (DSS model); format: in vivo, mice; conditions: vs DSS group; HED 10 mg
Experimental: as §1, §2, §3, §4

enterobacteria = experiment: Microbiota counts in feces: enterobacteria; format: in vivo, mice; conditions: after administration of DSS; HED 10 mg
Experimental: as §1
as §2, with “kg)^0.33. […]” for “kg)^0.33.”
(§5) • Monitoring of weight, food and drink ingestion. The mice in all groups were individually monitored, with weight, quantity of food ingested and water drunk each day being monitored throughout the experimental test. • Blood and water in feces. The water content of feces, as an indication of diarrhea, was evaluated using the difference in weight following evaporation in a stove. Blood was measured using reactive strips based on the guaiacol-peroxidase reaction (HealthCare Diagnosis Inc.). […] The reaction was measured using a scale from 0 (negative result) to 4 (most intense color change). • Length of colon. After sacrifice the colon was obtained from each mouse, extended and measured. […] This was evaluated by spectrophotometry at 460 nm using O-dianisidine reagent and hydrogen peroxide. The change in absorbance at 460 nm was monitored over 10 minutes in a V-630 spectrophotometer (Jasco, Tokyo, Japan). […] Levels of PGE2 were measured in colonic mucosa homogenates using an immunoenzyme method using a Cayman Chem. kit (USA). • “Antibody array”. […] The signal was detected by chemoluminescence. […]

COX-1 = COX-1 (Homo sapiens, UniProt P23219); conditions: cited from earlier work
[1] = test system: pathogenic bacteria (E. coli O157, Salmonella and Listeria monocytogenes Scott A); experiment: Adhesion of pathogenic bacteria to Caco-2 cell cultures; format: cell-based, human; conditions: Caco-2, 25 μM/well, vs positive control C+
Experimental: (§6) We used two cell models for colon cancer to evaluate the anti-adhesion capacity of compounds derived from resveratrol against pathogenic bacteria in food: Caco-2 (a model frequently used to measure the adhesion of microorganisms) and HT-29 (a model frequently used to measure immune response to infections by enteropathogens). Caco-2 and HT-29 cells were grown in EMEM and DMEM respectively, for which 24 well plates were used at 37° C., 5% CO2, 95% air until a single layer of confluent epithelium formed (cell concentration per well 2×10^5 and 6×10^5 respectively). Pathogenic bacteria (E. coli O157, Salmonella and Listeria monocytogenes Scott A) were placed in contact with the various compounds derived from resveratrol for 1 hour and subsequently the bacteria together with the different compounds in a concentration of 25 μM/well were inoculated on the cell cultures, incubating the plates for 2 hours at 37° C., 5% CO2, 95% air. The plates were then washed 3 times with 1 ml of sterile PBS and 1 ml of distilled water with 20% of glycerol was added, and they were frozen at −70° C. to lyse the epithelial cells. […] Concentrations of the various derivatives tested were detected in the digestive tracts of experimental animals and therefore the test lay within the range of physiologically achievable concentrations.

COX-2 = conditions: see ES2266271; cited from earlier work
[2] = test system: pathogenic bacteria (E. coli O157, Salmonella and Listeria monocytogenes Scott A); experiment: Adhesion of pathogenic bacteria to HT-29 cell cultures; format: cell-based, human; conditions: HT-29, 25 μM/well, vs positive control C+
Experimental: as §6

[3] = Time of arrival and concentration of resveratrol in the colon of healthy mice; conditions: gastric probang, 84 mg/kg resveratrol
E. coli = experiment: Microbiota counts in feces: E. coli; format: in vivo, mice; conditions: after administration of DSS; HED 10 mg
Experimental: as §1
as §2, with “kg)^0.33. […]” for “kg)^0.33.”
as §5

Chain of COX-1 (P23219 24-599): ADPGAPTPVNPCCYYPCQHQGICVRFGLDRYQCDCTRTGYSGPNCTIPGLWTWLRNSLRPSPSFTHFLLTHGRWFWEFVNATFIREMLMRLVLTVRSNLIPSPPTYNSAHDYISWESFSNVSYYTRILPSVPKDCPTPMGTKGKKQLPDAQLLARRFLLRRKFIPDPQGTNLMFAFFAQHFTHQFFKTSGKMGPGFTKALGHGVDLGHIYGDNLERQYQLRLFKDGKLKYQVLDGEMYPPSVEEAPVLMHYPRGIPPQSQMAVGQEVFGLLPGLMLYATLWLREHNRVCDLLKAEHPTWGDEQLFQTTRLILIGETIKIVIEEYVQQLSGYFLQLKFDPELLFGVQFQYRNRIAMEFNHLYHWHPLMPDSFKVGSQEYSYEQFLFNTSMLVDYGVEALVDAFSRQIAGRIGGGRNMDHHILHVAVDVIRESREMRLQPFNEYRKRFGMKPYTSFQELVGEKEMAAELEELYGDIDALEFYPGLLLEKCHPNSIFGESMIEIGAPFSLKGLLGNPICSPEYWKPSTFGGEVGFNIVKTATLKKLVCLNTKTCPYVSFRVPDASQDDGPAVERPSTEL

Row | SMILES | General appearance of the mice (C57BL/6 mice) | Bifidobacteria count in feces (bifidobacteria; 3 weeks of supplemented diet, prior to DSS) | Blood fibrinogen levels (fibrinogen) | Blood haptoglobin levels (haptoglobin) | Enterobacteria count in feces (enterobacteria) | Enzyme activity of COX-1 (COX-1) | Bifidobacteria count in feces (bifidobacteria; after administration of DSS) | Adhesion of pathogenic bacteria to the intestinal epithelium [1] | Transcription of COX-2 (COX-2) | Adhesion of pathogenic bacteria to intestinal epithelium [2] | Time of maximum resveratrol in the colon [3] | E. coli count in feces (E. coli)
1 | OC[C@H]1O[C@@H](Oc2cc(O)cc(/C=C/c3ccc(O)cc3)c2)[C@H](O)[C@@H](O)[C@@H]1O [PIC, resveratrol-3-O-glucoside, reference compound] | OCT (D)≈BUT (C)>>RES≈DIGLUC≈PIC (B)>>control-DSS (A) | – | – | – | – | – | – | – | – | – | – | –
2 | OC[C@H]1O[C@@H](Oc2cc(/C=C/c3ccc(O)cc3)cc(O[C@@H]3O[C@H](CO)[C@@H](O)[C@H](O)[C@H]3O)c2)[C@H](O)[C@@H](O)[C@@H]1O [DIGLUC, trans-resveratrol-3,5-di-O-β-D-glucopyranoside] | OCT (D)≈BUT (C)>>RES≈DIGLUC≈PIC (B)>>control-DSS (A) | highest count | most notable differences | clear tendency to improvement | – | – | – | – | – | – | – | –
3 | Oc1ccc(/C=C/c2cc(O)cc(O)c2)cc1 [RES, trans-resveratrol, reference compound] | OCT (D)≈BUT (C)>>RES≈DIGLUC≈PIC (B)>>control-DSS (A); also recorded: better appearance than the control-DSS | – | clear tendency to improvement | clear tendency to improvement | clear reduction | inhibits the enzyme activity of COX-1 | slightly higher counts | reduced the adhesion | inhibits the transcription of COX-2 | reduced the adhesion | around 5 hours | clear reduction
